Measurements published in US20250019370A1, “L-LYSINE SALT OF 4-CHLORO-5-[4-(2,6-DICHLOROPHENYL)SULFONYLPIPERAZIN-1-YL]-1-BENZOFURAN-2-CARBOXYLIC ACID AND VARIOUS FORMS THEREOF” (ENYO PHARMA, priority 2023, published 2025).

Legend:
[1] = Pharmacokinetic study Experiment #3, oral administration in rats; format: in vivo, rat; details: 10 mg EqEYP001/Kg
Method: In a third study (Experiment #3), EYP001 and EYP001 L-lysine salt Form I in aqueous formulations (0.5% CMC, 0.25% Tween 80, water) were orally administrated at a dose of 10 mg EqEYP001/Kg in 6-8 male rats for each compound. Blood samples were taken at 0.25 h, 0.5 h, 1 h, 2 h, 4 h, 6 h, 8 h, 12 h, and 24 h after oral administration.

[2] = Dynamic Vapor Sorption (DVS) analysis (gas water sorption); format: physicochemical; details: for water uptake (DVS): 25° C./60% RH; for hygroscopicity (DVS): hygroscopic above 2% mass gain at 25° C./60% RH
Method: The dynamic vapor sorption (DVS) analysis (gas water sorption) was performed on a DVS-Intrinsic incubator (SMS Ltd), equipped with DVS-Intrinsic Control Software 1.0. The sample, placed in an aluminium basket holder, was submitted to a full-cycle analysis (sorption followed by desorption cycle) under the following conditions:
The sample was first pre-dried under a stream of dry air until a stabilized sample mass was observed. Then, the relative humidity was increased by 5% increments. At each step, the sample mass was allowed to increase until equilibrium is reached (according to a given dm/dt target), and then a new relative humidity rise occurred. Relative humidity was ramped up to 95%. After equilibration at this point, desorption began in a similar stepwise manner, with sample mass decrease again allowed to stabilize after each incremental humidity decrease.
With both segments of the above-described method, the sample mass recording allowed describing of the whole vapor water sorption/desorption behaviour versus relative humidity.

[3] = Solubility kinetics in FaSSIF medium; format: physicochemical
Method: The solubility kinetics of the salt forms as well as the native EYP001 free acid form were determined in FaSSIF and FeSSIF media, and in a pH 4.5 acetate buffer as detailed below: The samples were prepared by adding an excess of each tested bulk (salt or native EYP001) to a given volume of test medium. The suspension was stirred by orbital stirring over 1 hour (in both pH 4.5 acetate buffer and FeSSIF medium) or 24 hours ([…] medium) at 37° C., protected from light. In FaSSIF medium, the soluble concentration was assessed after 24 hours of stirring. […] At each time point, the “supernatant” was isolated and diluted in a solvent mixture allowing its injection into the chromatographic system. The concentration in solution in the test medium was determined by HPLC with external standardization.

[4] = Pharmacokinetic study Experiment #1, oral administration in rats; format: in vivo, rat; details: 50 mg EqEYP001/Kg
Method: In a first study (Experiment #1), EYP001, EYP001 Meglumine salt, and EYP001 L-lysine salt Form I in aqueous formulations (0.5% CMC, 0.25% Tween 80, water) were orally administrated at a dose of 50 mg EqEYP001/Kg in 3 male rats for each compound. Blood samples were taken at 0.25 h, 0.5 h, 1 h, 2 h, 4 h, 6 h, 8 h, 12 h, and 24 h after oral administration.

[5] = Thermogravimetric analysis (TGA), mass losses upon heating; format: physicochemical; details: listed as EYP001 L-lysine salt (sample A)
Method: Thermogravimetric analysis was performed on a TA Instruments TGA Hi-Res 2950 apparatus equipped with an evolved gas analysis furnace. A sample was placed in an opened aluminium basket and analysed according to the following conditions: […]

[6] = male rats, versus EYP001 free acid
[7] = listed as EYP001 L-lysine salt (Sample A)
[8] = listed as EYP001 L-lysine salt (form I)

With `NCCCC[C@H](N)C(=O)O.O=C(O)c1cc2c(Cl)c(N3CCN(S(=O)(=O)c4c(Cl)cccc4Cl)CC3)ccc2o1` [EYP001 L-lysine salt Form I, L-lysine salt of 4-chloro-5-[4-(2,6-dichlorophenyl)sulfonylpiperazin-1-yl]-1-benzofuran-2-carboxylic acid] the “Mean AUC0-24” value ([1]; male rats, aqueous formulation) was 7311 ng·h/mL, the “Mean Cmax” value ([1]; male rats, aqueous formulation) was 2947 ng/mL and the “% increase/EYP001 (AUC0-24)” value [1, 6] was “+84%”. The “% increase/EYP001 (Cmax)” value [1, 6] was “+118%”, the “exposure and C max compared to EYP001 free acid” value ([1]; rat) was “superiority” and the “variability of the C max (CV %) compared to EYP001 free acid” value ([1]; rat) was “strongly reduced”. For the same molecule, the “variability of the exposure (CV %) compared to EYP001 free acid” value ([1]; rat) was “strongly reduced”, the “mass loss during preliminary drying phase” value ([2]; 25° C./0% RH before sorption, listed as EYP001 L-lysine salt (Sample A)) was “no significant mass loss” and the “water uptake (DVS)” value [2, 7] was 0.4%. For the same molecule, the “water uptake (DVS)” value [2, 8] was 0.4%, the “water uptake upon sorption (DVS)” value ([2]; 25° C./95% RH, listed as EYP001 L-lysine salt (Sample A)) was 0.8% and the “final sample mass after full sorption-desorption cycle versus initial mass” value ([2]; back to 0% RH) was “roughly the same as the initial one”. For the same molecule, the “hygroscopicity (DVS)” value [2, 7] was “non-hygroscopic”, the “hygroscopicity (DVS)” value [2, 8] was “non-hygroscopic” and the “solubility compared to EYP001 free acid, Piperazine, Morpholine, Imidazole, Benethamine, Zinc and Cyclohexylamine salts” value ([3]; 37° C.) was “higher solubility”. For the same molecule, the Soluble fraction ([3]; 37° C., after 24 h) was 0.31 mg/mL of EYP001, the pH ([3]; pH given with the soluble fraction, after 24 h) was 6.6 and the “Mean AUC0-24” value ([4]; male rats, aqueous formulation) was 60011 ng·h/mL. For the same molecule, the “Mean Cmax” value ([4]; male rats, aqueous formulation) was 8827 ng/mL, the “% increase/EYP001 (AUC0-24)” value [4, 6] was “+15%” and the “% increase/EYP001 (Cmax)” value [4, 6] was “+26%”. The “C max compared to EYP001 free acid and EYP001 Meglumine salt” value ([4]; rat) was “higher C max”, the “exposure (AUC0-24) compared to EYP001 free acid and EYP001 Meglumine salt” value ([4]; rat) was “superior exposure” and the “onset temperature of thermal decomposition (TGA)” value ([5]; heater ramp 10 ° C./min, nitrogen) was 254 °C. The “mass loss before the beginning of thermal decomposition (TGA)” value ([5]; upon heating) was “no mass loss”.
